Results from the NIST ThermoML archive (doi:10.1016/j.jct.2004.11.016).
Numbers after ± are expanded uncertainties.

Experiment: xn = mol fraction of the nth substance listed
Details: Liquid; for mass density: 101.3 kPa; for viscosity: 101 kPa

CN(C)CCO [2-(N,N-dimethylamino)ethanol] + O
Details	mass density [kg/m3]	viscosity [mPa·s]
293.15 K, x1 = 0.0121	996.588 ± 0.52	–
293.15 K, x1 = 0.0218	995.236 ± 0.53	–
293.15 K, x1 = 0.0252	994.947 ± 0.53	–
293.15 K, x1 = 0.0359	994.033 ± 0.53	–
293.15 K, x1 = 0.0617	992.027 ± 0.55	–
293.15 K, x1 = 0.1009	988.909 ± 0.57	–
293.15 K, x1 = 0.2017	973.822 ± 0.67	–
293.15 K, x1 = 0.3033	956.823 ± 0.79	–
293.15 K, x1 = 0.4051	941.071 ± 0.9	–
293.15 K, x1 = 0.5077	927.808 ± 0.98	–
293.15 K, x1 = 0.6099	916.51 ± 1.1	–
293.15 K, x1 = 0.7652	903.034 ± 1.1	–
293.15 K, x1 = 0.895	894.185 ± 1.2	–
293.15 K, x1 = 1	887.816 ± 1.2	–
298.15 K, x1 = 0.0121	995.282 ± 0.53	–
298.15 K, x1 = 0.0218	993.748 ± 0.54	–
298.15 K, x1 = 0.0252	993.401 ± 0.54	–
298.15 K, x1 = 0.0359	992.24 ± 0.55	–
298.15 K, x1 = 0.0617	989.74 ± 0.56	–
298.15 K, x1 = 0.1009	985.747 ± 0.59	–
298.15 K, x1 = 0.2017	969.911 ± 0.7	–
298.15 K, x1 = 0.3033	952.768 ± 0.82	–
298.15 K, x1 = 0.4051	936.991 ± 0.92	–
298.15 K, x1 = 0.5077	923.722 ± 1	–
298.15 K, x1 = 0.6099	912.41 ± 1.1	–
298.15 K, x1 = 0.7652	898.903 ± 1.2	–
298.15 K, x1 = 0.895	889.991 ± 1.2	–
298.15 K, x1 = 1	883.578 ± 1.2	–
303.15 K, x1 = 0.0121	993.747 ± 0.54	–
303.15 K, x1 = 0.0218	992.024 ± 0.55	–
303.15 K, x1 = 0.0252	991.591 ± 0.55	–
303.15 K, x1 = 0.0359	990.239 ± 0.56	–
303.15 K, x1 = 0.0617	987.103 ± 0.58	–
303.15 K, x1 = 0.1009	982.49 ± 0.61	–
303.15 K, x1 = 0.2017	965.929 ± 0.72	–
303.15 K, x1 = 0.3033	948.646 ± 0.84	–
303.15 K, x1 = 0.4051	932.844 ± 0.95	–
303.15 K, x1 = 0.5077	919.567 ± 1	–
303.15 K, x1 = 0.6099	908.259 ± 1.1	–
303.15 K, x1 = 0.7652	894.723 ± 1.2	–
303.15 K, x1 = 0.895	885.767 ± 1.2	–
303.15 K, x1 = 1	879.315 ± 1.3	–
308.15 K, x1 = 0.0121	991.994 ± 0.55	–
308.15 K, x1 = 0.0218	990.035 ± 0.56	–
308.15 K, x1 = 0.0252	989.243 ± 0.56	–
308.15 K, x1 = 0.0359	988.048 ± 0.57	–
308.15 K, x1 = 0.0617	984.421 ± 0.59	–
308.15 K, x1 = 0.1009	979.144 ± 0.63	–
308.15 K, x1 = 0.2017	961.896 ± 0.75	–
308.15 K, x1 = 0.3033	944.47 ± 0.87	–
308.15 K, x1 = 0.4051	928.641 ± 0.97	–
308.15 K, x1 = 0.5077	915.367 ± 1.1	–
308.15 K, x1 = 0.6099	904.055 ± 1.1	–
308.15 K, x1 = 0.7652	890.503 ± 1.2	–
308.15 K, x1 = 0.895	881.507 ± 1.3	–
308.15 K, x1 = 1	875.017 ± 1.3	–
313.15 K, x1 = 0.0121	989.83 ± 0.56	–
313.15 K, x1 = 0.0218	987.566 ± 0.57	–
313.15 K, x1 = 0.0252	986.624 ± 0.58	–
313.15 K, x1 = 0.0359	985.713 ± 0.59	–
313.15 K, x1 = 0.0617	981.605 ± 0.61	–
313.15 K, x1 = 0.1009	975.714 ± 0.65	2.669 ± 0.039
313.15 K, x1 = 0.2017	957.808 ± 0.78	5.071 ± 0.073
313.15 K, x1 = 0.3033	940.237 ± 0.9	6.593 ± 0.09
313.15 K, x1 = 0.4051	924.379 ± 1	6.58 ± 0.09
313.15 K, x1 = 0.5077	911.114 ± 1.1	5.885 ± 0.083
313.15 K, x1 = 0.6099	899.803 ± 1.2	4.784 ± 0.071
313.15 K, x1 = 0.7652	886.233 ± 1.2	3.467 ± 0.054
313.15 K, x1 = 0.895	877.213 ± 1.3	2.72 ± 0.044
313.15 K, x1 = 1	870.686 ± 1.3	2.238 ± 0.033
318.15 K, x1 = 0.0121	986.678 ± 0.58	–
318.15 K, x1 = 0.0218	985.311 ± 0.59	–
318.15 K, x1 = 0.0359	983.206 ± 0.6	–
318.15 K, x1 = 0.0617	978.661 ± 0.63	–
318.15 K, x1 = 0.1009	972.197 ± 0.68	–
318.15 K, x1 = 0.2017	953.663 ± 0.8	–
318.15 K, x1 = 0.3033	935.946 ± 0.92	–
318.15 K, x1 = 0.4051	920.062 ± 1	–
318.15 K, x1 = 0.5077	906.806 ± 1.1	–
318.15 K, x1 = 0.6099	895.501 ± 1.2	–
318.15 K, x1 = 0.7652	881.923 ± 1.3	–
318.15 K, x1 = 0.895	872.876 ± 1.3	–
318.15 K, x1 = 1	866.316 ± 1.3	–
323.15 K, x1 = 0.0617	975.591 ± 0.65	–
323.15 K, x1 = 0.1009	968.595 ± 0.7	1.957 ± 0.029
323.15 K, x1 = 0.2017	949.451 ± 0.83	3.487 ± 0.051
323.15 K, x1 = 0.3033	931.598 ± 0.95	4.435 ± 0.063
323.15 K, x1 = 0.4051	915.685 ± 1.1	4.433 ± 0.063
323.15 K, x1 = 0.5077	902.436 ± 1.1	4.044 ± 0.058
323.15 K, x1 = 0.6099	891.144 ± 1.2	3.393 ± 0.051
323.15 K, x1 = 0.7652	877.562 ± 1.3	2.573 ± 0.04
323.15 K, x1 = 0.895	868.495 ± 1.3	2.089 ± 0.033
323.15 K, x1 = 1	861.902 ± 1.4	1.756 ± 0.026
328.15 K, x1 = 0.0617	972.399 ± 0.67	–
328.15 K, x1 = 0.1009	964.905 ± 0.72	–
328.15 K, x1 = 0.2017	945.194 ± 0.85	–
328.15 K, x1 = 0.3033	927.188 ± 0.97	–
328.15 K, x1 = 0.4051	911.247 ± 1.1	–
328.15 K, x1 = 0.5077	898.016 ± 1.2	–
328.15 K, x1 = 0.6099	886.733 ± 1.2	–
328.15 K, x1 = 0.7652	873.15 ± 1.3	–
328.15 K, x1 = 0.895	864.065 ± 1.4	–
328.15 K, x1 = 1	857.46 ± 1.4	–
333.15 K, x1 = 0.0617	969.09 ± 0.69	–
333.15 K, x1 = 0.1009	961.13 ± 0.74	1.499 ± 0.022
333.15 K, x1 = 0.2017	940.864 ± 0.88	2.511 ± 0.037
333.15 K, x1 = 0.3033	922.714 ± 1	3.091 ± 0.044
333.15 K, x1 = 0.4051	906.75 ± 1.1	3.126 ± 0.045
333.15 K, x1 = 0.5077	893.531 ± 1.2	2.897 ± 0.042
333.15 K, x1 = 0.6099	882.262 ± 1.3	2.503 ± 0.037
333.15 K, x1 = 0.7652	868.68 ± 1.3	1.969 ± 0.03
333.15 K, x1 = 0.895	859.595 ± 1.4	1.641 ± 0.026
333.15 K, x1 = 1	852.965 ± 1.4	1.413 ± 0.021
338.15 K, x1 = 0.0617	965.663 ± 0.71	–
338.15 K, x1 = 0.1009	957.253 ± 0.77	–
338.15 K, x1 = 0.2017	936.472 ± 0.91	–
338.15 K, x1 = 0.3033	918.174 ± 1	–
338.15 K, x1 = 0.4051	902.184 ± 1.1	–
338.15 K, x1 = 0.5077	888.98 ± 1.2	–
338.15 K, x1 = 0.6099	877.726 ± 1.3	–
338.15 K, x1 = 0.7652	864.16 ± 1.4	–
338.15 K, x1 = 0.895	855.072 ± 1.4	–
338.15 K, x1 = 1	848.423 ± 1.5	–
343.15 K, x1 = 0.0617	961.835 ± 0.74	–
343.15 K, x1 = 0.1009	953.308 ± 0.8	1.186 ± 0.018
343.15 K, x1 = 0.2017	932.014 ± 0.94	1.896 ± 0.028
343.15 K, x1 = 0.3033	913.564 ± 1.1	2.27 ± 0.033
343.15 K, x1 = 0.4051	897.541 ± 1.2	2.302 ± 0.033
343.15 K, x1 = 0.5077	884.364 ± 1.2	2.152 ± 0.031
343.15 K, x1 = 0.6099	873.127 ± 1.3	1.909 ± 0.028
343.15 K, x1 = 0.7652	859.582 ± 1.4	1.551 ± 0.024
343.15 K, x1 = 0.895	850.491 ± 1.5	1.317 ± 0.021
343.15 K, x1 = 1	843.844 ± 1.5	1.156 ± 0.017
348.15 K, x1 = 0.0617	957.228 ± 0.77	–
348.15 K, x1 = 0.1009	949.273 ± 0.82	–
348.15 K, x1 = 0.2017	927.488 ± 0.97	–
348.15 K, x1 = 0.3033	908.868 ± 1.1	–
348.15 K, x1 = 0.4051	892.846 ± 1.2	–
348.15 K, x1 = 0.5077	879.677 ± 1.3	–
348.15 K, x1 = 0.6099	868.45 ± 1.3	–
348.15 K, x1 = 0.7652	854.939 ± 1.4	–
348.15 K, x1 = 0.895	845.858 ± 1.5	–
348.15 K, x1 = 1	839.205 ± 1.5	–
353.15 K, x1 = 0.0617	952.666 ± 0.8	–
353.15 K, x1 = 0.1009	945.149 ± 0.85	0.966 ± 0.015
353.15 K, x1 = 0.2017	922.889 ± 1	1.47 ± 0.022
353.15 K, x1 = 0.3033	904.132 ± 1.1	1.724 ± 0.025
353.15 K, x1 = 0.4051	888.074 ± 1.2	1.75 ± 0.026
353.15 K, x1 = 0.5077	874.926 ± 1.3	1.65 ± 0.024
353.15 K, x1 = 0.6099	863.729 ± 1.4	1.493 ± 0.022
353.15 K, x1 = 0.7652	850.236 ± 1.5	1.247 ± 0.019
353.15 K, x1 = 0.895	841.163 ± 1.5	1.078 ± 0.017
353.15 K, x1 = 1	834.521 ± 1.5	0.963 ± 0.015
358.15 K, x1 = 0.0617	950.878 ± 0.81	–
358.15 K, x1 = 0.1009	940.935 ± 0.88	–
358.15 K, x1 = 0.2017	918.216 ± 1	–
358.15 K, x1 = 0.3033	899.314 ± 1.2	–
358.15 K, x1 = 0.4051	883.233 ± 1.3	–
358.15 K, x1 = 0.5077	870.101 ± 1.3	–
358.15 K, x1 = 0.6099	858.928 ± 1.4	–
358.15 K, x1 = 0.7652	845.484 ± 1.5	–
358.15 K, x1 = 0.895	836.414 ± 1.5	–
358.15 K, x1 = 1	829.779 ± 1.6	–
363.15 K, x1 = 0.0617	946.398 ± 0.84	–
363.15 K, x1 = 0.1009	936.638 ± 0.9	–
363.15 K, x1 = 0.2017	913.472 ± 1.1	–
363.15 K, x1 = 0.3033	894.425 ± 1.2	–
363.15 K, x1 = 0.4051	878.314 ± 1.3	–
363.15 K, x1 = 0.5077	865.197 ± 1.4	–
363.15 K, x1 = 0.6099	854.052 ± 1.4	–
363.15 K, x1 = 0.7652	840.646 ± 1.5	–
363.15 K, x1 = 0.895	831.596 ± 1.6	–
363.15 K, x1 = 1	824.969 ± 1.6	–
